Each compound was assayed on Alternaria solani (assay: Alternaria solani (early blight of tomato/potato) in vitro radial growth test on Potato Dextrose Agar). Conditions: 168 h, radial growth after seven days at 25° C., 60% relative humidity, read-out: control compared to the untreated check.
Format: cell-based
O=C(Cc1ccccc1)Nc1ccc(Cc2noc(C(F)(F)F)n2)cc1 [Compound 6, 2-phenyl-N-(4-((5-(trifluoromethyl)-1,2,4-oxadiazol-3-yl)methyl)phenyl)acetamide] gave an inhibition of growth at 300 ppm of over 70%. O=C(NCc1ccc(F)cc1)c1ccc(Cc2noc(C(F)(F)F)n2)cc1 [Compound 12, N-(4-fluorobenzyl)-4-((5-(trifluoromethyl)-1,2,4-oxadiazol-3-yl)methyl)benzamide] gave an inhibition of growth at 300 ppm of over 70%. Cc1ccc(C(C)NC(=O)c2ccc(Cc3noc(C(F)(F)F)n3)cc2)cc1 (stereo not drawn) [Compound 15, N-(1-(p-tolyl)ethyl)-4-((5-(trifluoromethyl)-1,2,4-oxadiazol-3-yl)methyl)benzamide] showed an inhibition of growth at 300 ppm of over 70%. With O=C(NCc1cccnc1)c1ccc(Cc2noc(C(F)(F)F)n2)cc1 [Compound 16, N-(pyridin-3-ylmethyl)-4-((5-(trifluoromethyl)-1,2,4-oxadiazol-3-yl)methyl)benzamide] the inhibition of growth at 300 ppm was over 70%. With O=C(Nc1cncc(Cl)c1)c1ccc(Cc2noc(C(F)(F)F)n2)cc1 [Compound 17, N-(5-chloropyridin-3-yl)-4-((5-(trifluoromethyl)-1,2,4-oxadiazol-3-yl)methyl)benzamide] the inhibition of growth at 300 ppm was over 70%. With COc1ccccc1NC(=O)c1ccc(Cc2noc(C(F)(F)F)n2)cc1 [Compound 19, N-(2-methoxyphenyl)-4-((5-(trifluoromethyl)-1,2,4-oxadiazol-3-yl)methyl)benzamide] the inhibition of growth at 300 ppm was over 70%. Compound O=C(NCCN1CCOCC1)c1ccc(Cc2noc(C(F)(F)F)n2)cc1 [Compound 21, N-(2-morpholinoethyl)-4-((5-(trifluoromethyl)-1,2,4-oxadiazol-3-yl)methyl)benzamide] has an inhibition of growth at 300 ppm of over 70%. Work on O=C(Nc1cccc(Cl)c1)c1ccc(Cc2noc(C(F)(F)F)n2)cc1 [Compound 55, N-(3-chlorophenyl)-4-((5-(trifluoromethyl)-1,2,4-oxadiazol-3-yl)methyl)benzamide] yielded an inhibition of growth at 300 ppm of over 70%. With Cc1cccc(NC(=S)c2ccc(Cc3noc(C(F)(F)F)n3)cc2)c1 [Compound 64, N-(m-tolyl)-4-((5-(trifluoromethyl)-1,2,4-oxadiazol-3-yl)methyl)benzothioamide] the inhibition of growth at 300 ppm was over 70%.

These compounds were tested on Colletotrichum capsici (assay: Colletotrichum capsici (anthracnose) in vitro radial growth test on Potato Dextrose Agar). Conditions: 300 ppm; radial growth after seven days at 25° C., 60% relative humidity.
Format: cell-based
O=C(Cc1ccccc1)Nc1ccc(Cc2noc(C(F)(F)F)n2)cc1 [Compound 6, 2-phenyl-N-(4-((5-(trifluoromethyl)-1,2,4-oxadiazol-3-yl)methyl)phenyl)acetamide] was tested, and the “control compared to the untreated check” value was over 70%.

The compounds below were run on Corynespora cassicola (assay: Corynespora cassicola (leaf spot of tomato) in vitro radial growth test on Potato Dextrose Agar). Conditions: 300 ppm; radial growth after seven days at 25° C., 70% relative humidity.
Format: cell-based
O=S(=O)(Nc1ccc(Cc2noc(C(F)(F)F)n2)cc1)c1ccccc1 [Compound 68, N-(4-((5-(trifluoromethyl)-1,2,4-oxadiazol-3-yl)methyl)phenyl)benzenesulfonamide] was tested, and the “control compared to the untreated check” value was over 70%.

What follows are compounds tested on Phakopsora pachyrhizi (assay: Phakopsora pachyrhizi test in soybean (greenhouse, preventive)). Conditions: 24 h, soybean plants sprayed one day before inoculation, read-out: control compared to the untreated check (efficacy from disease severity rating).
Format: in vivo
Procedure: Compounds were dissolved in 2% DMSO/Acetone and then diluted with water containing emulsifier to the desired test concentration. To test the preventive activity of compounds, healthy young soybean plants, raised in the greenhouse, were sprayed with the active compound solution at the stated application rates inside spray cabinets using hallowcone nozzles. One day after treatment, the plants were inoculated with a suspension containing 2.1×10^6 Phakopsora pachyrhizi spores. The inoculated plants were then kept in the greenhouse chamber at 25° C. temperature and 90% relative humidity for disease expression. A visual assessment of the compound's performance was carried out by rating the disease severity (0-100% scale) on treated plants on 3, 7, 10 and 15 days after application. Efficacy (% control) of the compounds was calculated by comparing the disease rating in the treatment with the one of the untreated control. The treated plants were also assessed for plant compatibility by recording symptoms like necrosis, chlorosis and stunting.
In the case of O=C(Nc1ccc(Cc2noc(C(F)(F)F)n2)cc1)c1ccccc1 [Compound 2, N-(4-((5-(trifluoromethyl)-1,2,4-oxadiazol-3-yl)methyl)phenyl)benzamide], the pest or weed control at 500 ppm is reported as over 70%. Compound O=C(Nc1ccc(Cc2noc(C(F)(F)F)n2)cc1)c1ccccn1 [Compound 3, N-(4-((5-(trifluoromethyl)-1,2,4-oxadiazol-3-yl)methyl)phenyl)picolinamide] has a pest or weed control at 500 ppm of over 70%. For O=C(Nc1ccc(Cc2noc(C(F)(F)F)n2)cc1)c1cccnc1 [Compound 4, N-(4-((5-(trifluoromethyl)-1,2,4-oxadiazol-3-yl)methyl)phenyl)nicotinamide], the pest or weed control at 500 ppm was over 70%. O=C(Nc1ccc(Cc2noc(C(F)(F)F)n2)cc1)c1ccncc1 [Compound 5, N-(4-((5-(trifluoromethyl)-1,2,4-oxadiazol-3-yl)methyl)phenyl)isonicotinamide] gave a pest or weed control at 500 ppm of over 70%. In the case of O=C(Cc1ccccc1)Nc1ccc(Cc2noc(C(F)(F)F)n2)cc1 [Compound 6, 2-phenyl-N-(4-((5-(trifluoromethyl)-1,2,4-oxadiazol-3-yl)methyl)phenyl)acetamide], the pest or weed control at 500 ppm is reported as over 70%. O=C(Nc1ccc(Cc2noc(C(F)(F)F)n2)cc1)c1ccc(C(F)(F)F)cc1 [Compound 8, 4-(trifluoromethyl)-N-(4-((5-(trifluoromethyl)-1,2,4-oxadiazol-3-yl)methyl)phenyl)benzamide] was tested, and the pest or weed control at 500 ppm was over 70%. O=C(Nc1ccc(Cc2noc(C(F)(F)F)n2)cc1)c1ccc(F)cc1 [Compound 9, 4-fluoro-N-(4-((5-(trifluoromethyl)-1,2,4-oxadiazol-3-yl)methyl)phenyl)benzamide] was tested, and the pest or weed control at 500 ppm was over 70%. O=C(Nc1ccc(Cc2noc(C(F)(F)F)n2)cc1)c1ccc(Cl)cc1 [Compound 10, 4-chloro-N-(4-((5-(trifluoromethyl)-1,2,4-oxadiazol-3-yl)methyl)phenyl)benzamide] gave a pest or weed control at 500 ppm of over 70%. O=C(NCc1ccc(F)cc1)c1ccc(Cc2noc(C(F)(F)F)n2)cc1 [Compound 12, N-(4-fluorobenzyl)-4-((5-(trifluoromethyl)-1,2,4-oxadiazol-3-yl)methyl)benzamide] showed a pest or weed control at 500 ppm of over 70%. Work on O=C(c1ccc(Cc2noc(C(F)(F)F)n2)cc1)N1CCOCC1 [Compound 13, morpholino(4-((5-(trifluoromethyl)-1,2,4-oxadiazol-3-yl)methyl)phenyl)methanone] yielded a pest or weed control at 500 ppm of over 70%. COc1ccc(Cl)c(NC(=O)c2ccc(Cc3noc(C(F)(F)F)n3)cc2)c1 [Compound 18, N-(2-chloro-5-methoxyphenyl)-4-((5-(trifluoromethyl)-1,2,4-oxadiazol-3-yl)methyl)benzamide] was tested, and the pest or weed control at 500 ppm was over 70%. O=C(Nc1ccc(C(=O)c2noc(C(F)(F)F)n2)cc1)c1ccncc1 [Compound 27, N-(4-(5-(trifluoromethyl)-1,2,4-oxadiazole-3-carbonyl)phenyl)isonicotinamide] gave a pest or weed control at 500 ppm of over 70%. With CC(C)(C)OC(=O)Nc1ccc(C(=O)c2noc(C(F)(F)F)n2)cc1 [Compound 29, tert-butyl (4-(5-(trifluoromethyl)-1,2,4-oxadiazole-3-carbonyl)phenyl)carbamate] the pest or weed control at 500 ppm was over 70%. Compound CC(C)(C)OC(=O)Nc1ccc(C(F)(F)c2noc(C(F)(F)F)n2)cc1 [Compound 30, tert-butyl (4-(difluoro(5-(trifluoromethyl)-1,2,4-oxadiazol-3-yl)methyl)phenyl)carbamate] has a pest or weed control at 500 ppm of over 70%. Cc1ccc(C(=O)Nc2ccc(C(F)(F)c3noc(C(F)(F)F)n3)cc2)cc1 [Compound 38, N-(4-(difluoro(5-(trifluoromethyl)-1,2,4-oxadiazol-3-yl)methyl)phenyl)-4-methylbenzamide] was tested, and the pest or weed control at 500 ppm was over 70%. CNC(=O)c1ccc(Cc2noc(C(F)(F)F)n2)cc1 [Compound 40, N-methyl-4-((5-(trifluoromethyl)-1,2,4-oxadiazol-3-yl)methyl)benzamide] showed a pest or weed control at 500 ppm of over 70%. In the case of COCCNC(=O)c1ccc(Cc2noc(C(F)(F)F)n2)cc1 [Compound 42, N-(2-methoxyethyl)-4-((5-(trifluoromethyl)-1,2,4-oxadiazol-3-yl)methyl)benzamide], the pest or weed control at 500 ppm is reported as over 70%. Compound O=C(c1ccc(Cc2noc(C(F)(F)F)n2)cc1)N1CCCC1 [Compound 45, pyrrolidin-1-yl(4-((5-(trifluoromethyl)-1,2,4-oxadiazol-3-yl)methyl)phenyl)methanone] has a pest or weed control at 500 ppm of over 70%. COCCN(C)C(=O)c1ccc(Cc2noc(C(F)(F)F)n2)cc1 [Compound 46, N-(2-methoxyethyl)-N-methyl-4-((5-(trifluoromethyl)-1,2,4-oxadiazol-3-yl)methyl)benzamide] was tested, and the pest or weed control at 500 ppm was over 70%. In the case of O=C(NCC1CC1)c1ccc(Cc2noc(C(F)(F)F)n2)cc1 [Compound 47, N-(cyclopropylmethyl)-4-((5-(trifluoromethyl)-1,2,4-oxadiazol-3-yl)methyl)benzamide], the pest or weed control at 500 ppm is reported as over 70%. With CCN(C)C(=O)c1ccc(Cc2noc(C(F)(F)F)n2)cc1 [Compound 48, N-ethyl-N-methyl-4-((5-(trifluoromethyl)-1,2,4-oxadiazol-3-yl)methyl)benzamide] the pest or weed control at 500 ppm was over 70%. C=CCN(C)C(=O)c1ccc(Cc2noc(C(F)(F)F)n2)cc1 [Compound 49, N-allyl-N-methyl-4-((5-(trifluoromethyl)-1,2,4-oxadiazol-3-yl)methyl)benzamide] was tested, and the pest or weed control at 500 ppm was over 70%. Compound C#CCNC(=O)c1ccc(Cc2noc(C(F)(F)F)n2)cc1 [Compound 50, N-(prop-2-yn-1-yl)-4-((5-(trifluoromethyl)-1,2,4-oxadiazol-3-yl)methyl)benzamide] has a pest or weed control at 500 ppm of over 70%. For Fc1ccc(NC(=S)c2ccc(Cc3noc(C(F)(F)F)n3)cc2)cc1 [Compound 67, N-(4-fluorophenyl)-4-((5-(trifluoromethyl)-1,2,4-oxadiazol-3-yl)methyl)benzothioamide], the pest or weed control at 500 ppm was over 70%. With O=S(=O)(Nc1ccc(Cc2noc(C(F)(F)F)n2)cc1)c1ccccc1 [Compound 68, N-(4-((5-(trifluoromethyl)-1,2,4-oxadiazol-3-yl)methyl)phenyl)benzenesulfonamide] the pest or weed control at 500 ppm was over 70%.
